According to ChEMBL document CHEMBL1201862, “PubChem BioAssay data set” (2004):
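Results reflect a 48-hour exposure of cells in 96-well plates to compound at five concentrations. Here, GI50 denotes the concentration required for 50% inhibition of growth.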 The source made the active and inactive calls. No stated cut-off is given here; in the data, active = GI50 up to about 1.1 µM and inactive = higher.

How the values were obtained:
Test in all cases: NCI tumour cell line growth inhibition, 48 h
[1] = test system: SK-MEL-5
[2] = test system: SR
[3] = test system: TK-10
[4] = test system: MDA-MB-435
[5] = test system: HL-60
[6] = test system: KM12
[7] = test system: MOLT-4
[8] = test system: BT-549
[9] = test system: SF-295
[10] = test system: OVCAR-3
[11] = test system: DU-145
[12] = test system: HCT-15
[13] = test system: MDA-MB-231
[14] = test system: HCT-116
[15] = test system: NCI-H460
[16] = test system: EKVX
[17] = test system: COLO 205
[18] = test system: UACC-257
[19] = test system: A498
[20] = test system: NCI-H23
[21] = test system: K562
[22] = test system: RXF 393
[23] = test system: RPMI-8226
[24] = test system: NCI-H522
[25] = test system: M14
[26] = test system: SF-268
[27] = test system: ACHN
[28] = test system: IGROV-1
[29] = test system: HCC 2998
[30] = test system: HOP-62
[31] = test system: SN12C
[32] = test system: NCI/ADR-RES
[33] = test system: SW-620
[34] = test system: T47D
[35] = test system: SK-MEL-2
[36] = test system: OVCAR-4
[37] = test system: HT-29
[38] = test system: UACC-62
[39] = test system: CCRF-CEM
[40] = test system: SF-539
[41] = test system: CAKI-1
[42] = test system: SK-MEL-28
[43] = test system: MCF7
[44] = test system: U-251
[45] = test system: SK-OV-3
[46] = test system: SNB-75
[47] = test system: NCI-H226
[48] = test system: OVCAR-5
[49] = test system: LOX IMVI
[50] = test system: UO-31
[51] = test system: OVCAR-8
[52] = test system: 786-0
[53] = test system: A549
[54] = test system: PC-3
[55] = test system: Hs-578T
[56] = test system: Malme-3M
[57] = test system: HOP-92
[58] = test system: MDA-N
[59] = test system: SNB-19

COCn1cnc2c(=O)n(-c3ccc(OC)cc3)c(=S)n(-c3ccc(OC)cc3)c21
GI50 [1]: > 100 µM (inactive) | GI50 [2]: > 100 µM (inactive) | GI50 [3]: > 100 µM (inactive) | GI50 [4]: > 100 µM (inactive) | GI50 [5]: > 100 µM (inactive) | GI50 [6]: > 100 µM (inactive) | GI50 [7]: > 100 µM (inactive) | GI50 [8]: > 100 µM (inactive) | GI50 [9]: > 100 µM (inactive) | GI50 [10]: > 100 µM (inactive) | GI50 [11]: > 100 µM (inactive) | GI50 [12]: > 100 µM | GI50 [13]: > 100 µM (inactive) | GI50 [14]: > 100 µM (inactive) | GI50 [15]: > 100 µM (inactive) | GI50 [16]: > 100 µM (inactive) | GI50 [17]: > 100 µM (inactive) | GI50 [18]: > 100 µM (inactive) | GI50 [19]: > 100 µM (inactive) | GI50 [20]: > 100 µM (inactive) | GI50 [21]: > 100 µM (inactive) | GI50 [22]: > 100 µM (inactive) | GI50 [23]: > 100 µM (inactive) | GI50 [24]: > 100 µM (inactive) | GI50 [25]: > 100 µM (inactive) | GI50 [26]: > 100 µM (inactive) | GI50 [27]: > 100 µM (inactive) | GI50 [28]: > 100 µM (inactive) | GI50 [29]: > 100 µM (inactive) | GI50 [30]: > 100 µM (inactive) | GI50 [31]: > 100 µM (inactive) | GI50 [32]: > 100 µM (inactive) | GI50 [33]: > 100 µM (inactive) | GI50 [34]: > 100 µM (inactive) | GI50 [35]: > 100 µM (inactive) | GI50 [36]: 89.3 µM (inactive) | GI50 [37]: > 100 µM (inactive) | GI50 [38]: > 100 µM (inactive) | GI50 [39]: > 100 µM (inactive) | GI50 [40]: > 100 µM (inactive) | GI50 [41]: > 100 µM (inactive) | GI50 [42]: > 100 µM (inactive) | GI50 [43]: > 100 µM (inactive) | GI50 [44]: > 100 µM (inactive) | GI50 [45]: > 100 µM (inactive) | GI50 [46]: > 100 µM (inactive) | GI50 [47]: > 100 µM (inactive) | GI50 [48]: > 100 µM (inactive) | GI50 [49]: > 100 µM (inactive) | GI50 [50]: > 100 µM (inactive) | GI50 [51]: > 100 µM (inactive) | GI50 [52]: > 100 µM (inactive) | GI50 [53]: > 100 µM (inactive) | GI50 [54]: > 100 µM (inactive)

COCCNC1CCC2(SCCS2)c2[nH]c3ccccc3c21 (stereo not drawn)
GI50 [1]: 25.1 µM (inactive) | GI50 [2]: 23.1 µM (inactive) | GI50 [55]: 57.9 µM (inactive) | GI50 [3]: 22.5 µM (inactive) | GI50 [4]: 22.4 µM (inactive) | GI50 [5]: 18.9 µM (inactive) | GI50 [6]: 17.8 µM (inactive) | GI50 [7]: 29.2 µM (inactive) | GI50 [8]: 20.6 µM (inactive) | GI50 [9]: 50.4 µM (inactive) | GI50 [10]: 27.2 µM (inactive) | GI50 [11]: 39.3 µM (inactive) | GI50 [12]: 69.8 µM | GI50 [13]: 20.3 µM (inactive) | GI50 [14]: 50.1 µM (inactive) | GI50 [15]: 67.8 µM (inactive) | GI50 [56]: > 10 µM (inactive) | GI50 [16]: > 100 µM (inactive) | GI50 [17]: 22.2 µM (inactive) | GI50 [18]: 18 µM (inactive) | GI50 [19]: 25.5 µM (inactive) | GI50 [20]: > 100 µM (inactive) | GI50 [21]: 32.2 µM (inactive) | GI50 [22]: 14 µM (inactive) | GI50 [23]: 15 µM (inactive) | GI50 [24]: 30.8 µM (inactive) | GI50 [25]: 16 µM (inactive) | GI50 [57]: 21.8 µM (inactive) | GI50 [26]: > 100 µM (inactive) | GI50 [58]: 22.9 µM (inactive) | GI50 [27]: 61.9 µM (inactive) | GI50 [28]: > 100 µM (inactive) | GI50 [59]: > 100 µM (inactive) | GI50 [29]: 67.6 µM (inactive) | GI50 [30]: 86.7 µM (inactive) | GI50 [31]: 28.4 µM (inactive) | GI50 [32]: 37.5 µM (inactive) | GI50 [33]: 68.7 µM (inactive) | GI50 [35]: 44.8 µM (inactive) | GI50 [36]: 97.1 µM (inactive) | GI50 [37]: > 100 µM (inactive) | GI50 [39]: 35.2 µM (inactive) | GI50 [40]: 23.6 µM (inactive) | GI50 [41]: 39.1 µM (inactive) | GI50 [42]: 26.3 µM (inactive) | GI50 [43]: 16.8 µM (inactive) | GI50 [44]: 37.2 µM (inactive) | GI50 [46]: 90.8 µM (inactive) | GI50 [47]: 40.3 µM (inactive) | GI50 [48]: > 100 µM (inactive) | GI50 [49]: 16.5 µM (inactive) | GI50 [50]: > 10 µM (inactive) | GI50 [51]: 46.1 µM (inactive) | GI50 [52]: 31.8 µM (inactive) | GI50 [53]: > 100 µM (inactive) | GI50 [54]: 28.6 µM (inactive)

Oc1ccc(/C=N/c2nccs2)c(O)c1
GI50 [1]: > 100 µM (inactive) | GI50 [55]: > 100 µM (inactive) | GI50 [3]: > 100 µM (inactive) | GI50 [6]: 16 µM (inactive) | GI50 [8]: > 100 µM (inactive) | GI50 [9]: > 100 µM (inactive) | GI50 [10]: > 100 µM (inactive) | GI50 [11]: > 100 µM (inactive) | GI50 [12]: > 100 µM | GI50 [13]: > 100 µM (inactive) | GI50 [14]: > 100 µM (inactive) | GI50 [15]: > 100 µM (inactive) | GI50 [56]: > 100 µM (inactive) | GI50 [16]: > 100 µM (inactive) | GI50 [17]: 33.3 µM (inactive) | GI50 [18]: > 100 µM (inactive) | GI50 [20]: > 100 µM (inactive) | GI50 [22]: > 100 µM (inactive) | GI50 [24]: > 100 µM (inactive) | GI50 [25]: > 100 µM (inactive) | GI50 [26]: > 100 µM (inactive) | GI50 [58]: > 100 µM (inactive) | GI50 [27]: > 100 µM (inactive) | GI50 [28]: > 100 µM (inactive) | GI50 [59]: > 100 µM (inactive) | GI50 [29]: 30.2 µM (inactive) | GI50 [30]: > 100 µM (inactive) | GI50 [32]: > 100 µM (inactive) | GI50 [37]: > 100 µM (inactive) | GI50 [38]: > 100 µM (inactive) | GI50 [40]: > 100 µM (inactive) | GI50 [41]: > 100 µM (inactive) | GI50 [43]: 64 µM (inactive) | GI50 [45]: > 100 µM (inactive) | GI50 [46]: > 100 µM (inactive) | GI50 [47]: > 100 µM (inactive) | GI50 [48]: > 100 µM (inactive) | GI50 [49]: > 100 µM (inactive) | GI50 [50]: > 100 µM (inactive) | GI50 [51]: > 100 µM (inactive) | GI50 [52]: > 100 µM (inactive) | GI50 [53]: > 100 µM (inactive) | GI50 [54]: > 100 µM (inactive)
